In PMC7589200, “Identification of Putative Non-Substrate-Based XT-I Inhibitors by Natural Product Library Screening” (Biomolecules, 2020):

Columns and labels:
XT-I = molecular target: T1, XT-I (Homo sapiens, UniProt Q86Y38); assay: Enzyme and inhibition kinetics (mode of inhibition), UPLC/ESI-MS/MS XT-I assay; assay type: biochemical; conditions: inhibitor at IC50 concentration; for Vmax: Figure 2, modified acceptor peptide varied, 15 μM UDP-D-xylose, Michaelis-Menten; for Vmax [AU]: Table S2, Michaelis-Menten plot, nonlinear regression
T1 sequence (Q86Y38 260-959 limits assumed): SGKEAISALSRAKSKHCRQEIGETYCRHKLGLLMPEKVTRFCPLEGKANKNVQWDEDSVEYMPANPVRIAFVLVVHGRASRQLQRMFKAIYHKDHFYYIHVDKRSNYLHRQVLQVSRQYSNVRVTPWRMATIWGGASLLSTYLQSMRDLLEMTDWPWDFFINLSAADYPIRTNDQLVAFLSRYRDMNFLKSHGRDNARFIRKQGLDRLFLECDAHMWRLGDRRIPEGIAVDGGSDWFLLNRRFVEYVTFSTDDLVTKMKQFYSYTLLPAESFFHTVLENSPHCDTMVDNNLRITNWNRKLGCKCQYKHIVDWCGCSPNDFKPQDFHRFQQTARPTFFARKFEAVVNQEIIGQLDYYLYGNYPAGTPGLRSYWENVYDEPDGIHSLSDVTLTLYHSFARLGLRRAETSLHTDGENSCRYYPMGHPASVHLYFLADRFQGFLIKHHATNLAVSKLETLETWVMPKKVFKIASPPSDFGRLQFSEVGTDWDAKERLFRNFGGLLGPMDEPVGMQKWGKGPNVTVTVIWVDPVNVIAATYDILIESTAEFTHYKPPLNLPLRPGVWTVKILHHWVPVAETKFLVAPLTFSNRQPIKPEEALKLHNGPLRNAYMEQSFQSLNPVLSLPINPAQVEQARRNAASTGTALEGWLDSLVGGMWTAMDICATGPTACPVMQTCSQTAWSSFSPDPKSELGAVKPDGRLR
Excerpt: The measurement of relative XT-I activity among different samples is based on the XT-catalyzed incorporation of xylose from UDP-D-xylose on a modified bikunin-derived peptide after a fixed reaction time. The assay was originally developed for the determination of XT activity in human- or cell-culture-derived samples [13] by ultra-performance liquid chromatography/electrospray ionization tandem mass spectrometry (UPLC/ESI-MS/MS). The UPLC/ESI-MS/MS XT assay was recently modified toward a XT-I selective activity determination in human serum and cell culture samples (unpublished data). The relative intensities of the xylosylated peptide species abundance obtained with the respective m/z ratio were directly proportional to the relative XT-I activity of the sample. The XT-I activity determined is expressed in arbitrary units and normalized to the total protein content per 1 mL sample volume in cell culture approaches. A calibrator probe with a fixed amount of recombinant XT-I enzyme was included in every UPLC-MS/MS XT-I assay for assay comparability across multiple runs. The assay reaction mixture (50 μL) contained 50% (v/v) of the respective XT-I enzyme solution and 50% (v/v) reaction buffer. The final XT-I assay contained 25 mM MES buffer (pH 6.5), 25 mM KF buffer, 5 mM MnCl2, 5 mM MgCl2, 7.0 μM modified acceptor peptide and 30 μM UDP-D-xylose. The sample preparation for UPLC/ESI-MS/MS was performed according to [13]. In brief, after sample incubation at 37 °C for 24 h, the reaction was stopped by heating at 99 °C for 10 min. After centrifugation (10,000× g, 10 min) the supernatant was diluted fivefold with UPLC water for analysis. All cell-based XT-I assays were carried out in three biological and three technical replicates per donor-derived primary cell culture, while the XT-I activity determination for screening or kinetic purposes was carried out at least in technical duplicates.
The mode of inhibition (MOI) study was performed by evaluating the inhibitors’ impact on the enzyme parameters’ Michaelis constant Km and the maximum activity Vmax. In order to determine the enzyme and inhibition kinetics, XT-I activity determination of the recombinant XT-I protein solution with and without inhibitor supplementation was carried out in the presence of different acceptor peptide concentrations ranging from 1 to 30 μM. […] The Km and Vmax were determined with the Michaelis–Menten equation and nonlinear regression analysis, while the slope and Y-intersection values were determined by a Lineweaver–Burk plot and simple linear regression using GraphPad Prism 8.0 (GraphPad Software, La Jolla, United States) software.

recombinant human XT-I = molecular target: T2, recombinant human XT-I (Homo sapiens, UniProt Q86Y38); assay: NP library inhibitor screening, UPLC/ESI-MS/MS XT-I assay; assay type: biochemical; conditions: 50 μM inhibitor, technical duplicates; for XT-I Activity [%]: Table 2, relative to control (DMSO = 100%); for remaining activity at 50 µM: Table S1, relative to negative control containing DMSO
T2 sequence (Q86Y38 252-959 limits assumed): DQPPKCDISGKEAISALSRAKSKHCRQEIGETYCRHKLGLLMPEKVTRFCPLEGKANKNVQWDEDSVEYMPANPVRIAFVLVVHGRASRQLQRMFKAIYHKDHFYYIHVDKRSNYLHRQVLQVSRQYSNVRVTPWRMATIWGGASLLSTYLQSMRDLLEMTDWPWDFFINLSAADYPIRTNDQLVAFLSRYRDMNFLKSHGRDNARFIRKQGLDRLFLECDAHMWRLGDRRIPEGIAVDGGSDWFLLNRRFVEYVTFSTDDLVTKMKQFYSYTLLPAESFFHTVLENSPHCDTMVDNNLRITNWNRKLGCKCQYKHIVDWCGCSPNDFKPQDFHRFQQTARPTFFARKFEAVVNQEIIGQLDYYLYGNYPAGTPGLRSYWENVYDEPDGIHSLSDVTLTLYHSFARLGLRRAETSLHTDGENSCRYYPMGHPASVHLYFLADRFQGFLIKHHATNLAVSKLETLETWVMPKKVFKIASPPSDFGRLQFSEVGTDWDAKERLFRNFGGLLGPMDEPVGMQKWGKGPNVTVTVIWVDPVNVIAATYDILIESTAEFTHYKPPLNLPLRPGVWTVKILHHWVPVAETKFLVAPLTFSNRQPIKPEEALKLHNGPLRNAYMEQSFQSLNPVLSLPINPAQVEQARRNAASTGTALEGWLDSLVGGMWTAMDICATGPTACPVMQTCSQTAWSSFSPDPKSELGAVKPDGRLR

Row | SMILES | Vmax (XT-I) | Vmax [AU] (XT-I) | mode of inhibition (MOI) regarding the acceptor peptide (XT-I) | XT-I Activity [%] (recombinant human XT-I) | remaining activity at 50 µM (recombinant human XT-I)
1 | C[C@@H]1[C@H](O)[C@@H](C)/C=C/C=C/C=C/C=C/C=C/C=C/C=C/[C@H](O[C@@H]2O[C@H](C)[C@@H](O)[C@H](N)[C@@H]2O)C[C@@H]2O[C@](O)(C[C@@H](O)C[C@@H](O)[C@H](O)CC[C@@H](O)C[C@@H](O)CC(=O)O[C@H]1C)C[C@H](O)[C@H]2C(=O)O [Compound 17, Amphotericin B] | 10 ± 0.4 ·10^3 AU | 10031 ± 388 AU | uncompetitive | 25% | 25%
2 | CC1=C(O)C(=O)C=C2C1=CC=C1[C@@]2(C)CC[C@@]2(C)[C@@H]3C[C@](C)(C(=O)O)CC[C@]3(C)CC[C@]12C [Compound 68, Celastrol] | 12 ± 0.6 ·10^3 AU | 11826 ± 551 AU | competitive | 38% | 38%
